Assay results: patent publication US20240342119A1, “COMPOSITION FOR TREATING HY[…] AND KELOIDS […] THI[…] AS ACTIVE INGREDIENT” (CEL[…]., priority 2021, published 2024)

Test system: hypertrophic scars in rabbit ears
Test: rabbit ear hypertrophic scar model
Type: in vivo, New Zealand white rabbits
Details: 10% compound; for epidermal thickness of hypertrophic scar / scar elevation index (SEI) / collagen density (ratio of blue-stained area to total area): 0.5 mL applied daily for 14 days, compared to control and solvent-treated group; for epidermal thickness of hypertrophic scar: H&E, FIG. 9; for scar elevation index (SEI): FIG. 10; for collagen density (ratio of blue-stained area to total area): FIG. 11; for visual evaluation score of hypertrophic scar (dermatoscope, score 0-3 of Table 1): 0.5 mL applied daily, day 14, compared to control and solvent-treated group, FIG. 8
Source text: Eight female New Zealand white rabbits (2.6 to 3 kg) were anesthetized, and wounds were formed by removing the epidermis, dermis, and perichondrium of the ear skin of the rabbits using an 8 mm biopsy punch. Three wounds were formed in an ear area of each rabbit. The rabbit's surgical site was sterilized, and the formation of hypertrophic scars was induced through natural healing for 3 weeks.
After 3-week natural healing, the complete epithelialization and hypertrophic scar formation in scar areas were confirmed, and treatment was started for each test group. The test groups were classified into a normal group (normal tissue), a control (untreated scar/hypertrophic scar), test group 1 (solve application), test group 2 (CBM-N1 10%), test group 3 (CBM-N3 10%), test group 4 (CBM-N 10%), and test group 5 (CBM-N 10%).
Each test group was treated by applying 0.5 mL of drug daily for 2 weeks (14 days), and then a tissue autopsy was performed. The biopsied tissue was stored in a 10% formalin solution to form a tissue slide. The effectiveness of hypertrophic scar treatment was confirmed through dermatoscopy and histological evaluation.
The skin tissue areas of the control and test groups were observed using a dermatoscope on the start day and end day (Day 14 of treatment) of treatment, and depending on the degree of hypertrophic scar formation, scores were given for visual evaluation as shown in Table 1 below.
A paraffin block of the fixed ear tissue of a rabbit was prepared, and sliced to a thickness of 3 μm, thereby preparing a tissue slide. Following hydration, staining was performed using hematoxylin and eosin solutions. The stained tissue slides were photographed using a 200× microscope, and epithelial thicknesses were measured using ZEISS ZEN Microscope Software.
The fixed ear tissue of a rabbit was stained with a hematoxylin or eosin solution in the same manner as in the epidermal thickness analysis method, and the stained tissue slide was photographed at 50× magnification. Using ZEISS ZEN Microscope Software, the length from the epidermis to the cartilage was measured for the scar area and normal area, and the scar evaluation index (SEI) was calculated from the results. Here, the SEI is the value calculated by dividing ‘the length from the epidermis to the cartilage at the thickest point in the scar area’ by ‘the length from the epidermis to the cartilage in the normal skin area.’
A paraffin block of the fixed ear tissue of a rabbit was prepared, and sliced to a thickness of 3 μm, thereby preparing a tissue slide. Following hydration, staining was performed using Biebrich Scarlet-Acid Fuchsin solution for 5 minutes, and washing was performed and then staining was performed again with phosphotungstic acid/phosphomolybdic acid for 5 minutes.
Subsequently, staining was performed with aniline blue and an acetic acid solution, and the stained tissue slides were photographed at 400× magnification. In the photographs that were taken, the ratio of the blue-stained area, that is, the area occupied by collagen, to the total area was analyzed using Image J (The National Institutes of Health, USA).

| Structure (SMILES) | epidermal thickness of hypertrophic scar | scar elevation index (SEI) | collagen density (ratio of blue-stained area to total area) | visual evaluation score of hypertrophic scar (dermatoscope, score 0-3 of Table 1) |
| --- | --- | --- | --- | --- |
| O=C(CSC(c1ccccc1)c1ccccc1)Nc1ccccc1 [CBM-N3, 2-(benzhydrylthio)-N-phenylacetamide] | thin epidermal thicknesses | lower SEI values | lower collagen densities | much lower |
| NC(=O)C[S+]([O-])C(c1ccccc1)c1ccccc1 (stereo not shown) [CBM-N1, 2-(benzhydrylsulfinyl)acetamide, reference compound] | thin epidermal thicknesses | lower SEI values | lower collagen densities | much lower |
| O=C(C[S+]([O-])C(c1ccccc1)c1ccccc1)NCC1CCCO1 (stereo not shown) [CBM-N5, 2-(benzhydrylsulfinyl)-N-[(tetrahydrofuran-2-yl)methyl]acetamide] | thin epidermal thicknesses | lower SEI values | lower collagen densities | much lower |
| NC(=O)C[S+]([O-])C(c1ccc(F)cc1)c1ccc(F)cc1 (stereo not shown) [CBM-N9, 2-[bis(4-fluorophenyl)methanesulfinyl]acetamide] | thin epidermal thicknesses | lower SEI values | lower collagen densities | much lower |
